Results taken from US6977265B2, “Piperidine CCR-3 receptor antagonists” (Roche Palo Alto LLC, priority 2001, dated 2005).
Structures can show the parent of a compound that is named as a salt.

Key:
CCR-3 receptor = target: T1, CCR-3 receptor (Homo sapiens, UniProt P51677); assay: CCR-3 receptor binding assay, in vitro: inhibition of 125I eotaxin binding to CCR-3 L1.2 transfectant cells; conditions: inhibition of binding of 125I-eotaxin to CCR-3 L1.2 transfected cells, 1 hour at room temperature
T1 construct: expressed in transfected cells; host or cells: L1.2 (murine pre-B lymphoma line) stably transfected with CCR-3
T1 sequence (P51677 1-355): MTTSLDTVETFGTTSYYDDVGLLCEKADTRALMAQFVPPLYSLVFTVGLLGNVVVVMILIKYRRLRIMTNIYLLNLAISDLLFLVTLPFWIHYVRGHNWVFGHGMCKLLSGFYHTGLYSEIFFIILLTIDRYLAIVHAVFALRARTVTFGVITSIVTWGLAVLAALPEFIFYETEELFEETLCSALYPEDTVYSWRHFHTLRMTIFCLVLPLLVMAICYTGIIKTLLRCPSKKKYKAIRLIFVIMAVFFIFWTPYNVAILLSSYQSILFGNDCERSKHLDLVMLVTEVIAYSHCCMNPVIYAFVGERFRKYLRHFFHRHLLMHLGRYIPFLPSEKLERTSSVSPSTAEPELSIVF
Experimental: The CCR-3 antagonistic activity of the compounds of the invention was determined by their ability to inhibit the binding of ^125I eotaxin to CCR-3 L1.2 transfectant cells (see Ponath, P. D. et al., J. Exp. Med., Vol. 183, 2437-2448, (1996)).
The assay was performed in Costar 96-well polypropylene round bottom plates. Test compounds were dissolved in DMSO and then diluted with binding buffer (50 mM HEPES, 1 mM CaCl2, 5 mM MgCl2, 0.5% bovine serum albumin (BSA), 0.02% sodium azide, pH 7.24) such that the final DMSO concentration was 2%. 25 μl of the test solution or only buffer with DMSO (control samples) was added to each well, followed by the addition of 25 μl of ^125I-eotaxin ([…]) (NEX314, New England Nuclear, Boston, Mass.) and 1.5×10^5 of the CCR-3 L1.2 transfected cells in 25 μl binding buffer. The final reaction volume was 75 μl.
After incubating the reaction mixture for 1 hour at room temperature, the reaction was terminated by filtering the reaction mixture through polyethylenimine treated Packard Unifilter GF/C filter plate (Packard, Chicago, Ill.). The filters were washed four times with ice cold wash buffer containing 10 mm HEPES and 0.5M sodium chloride (pH 7.2) and dried at 65° C. for approximately 10 minutes. 25 μl/well of Microscint-20® scintillation fluid (Packard) was added and the radioactivity retained on the filters was determined by using the Packard TopCount®.

In the case of `COc1cc(NC(=O)N[C@@H]2CN(CC(N)=O)C[C@H]2N2CCC(Cc3ccc(Cl)cc3)CC2)cc(OC)c1OC` (racemic) (as salt: hydrochloride), the melting point is reported as 160 to 165 °C.
Compound `COc1cc(NC(=O)N[C@@H]2C[C@H](OC)C[C@H]2N2CCC(Cc3ccc(Cl)cc3)CC2)cc(OC)c1OC` (racemic) (as salt: hydrochloride) has a melting point of 112.5 to 119.5 °C.
`CS(=O)(=O)c1ccc(C(=O)N[C@@H]2CCC[C@@H]2N2CCC(Cc3ccc(Cl)cc3)CC2)cc1` (racemic) (as salt: hydrochloride) [Example 11, (±)-cis-N-{2-[4-(4-chlorobenzyl)piperidin-1-yl]-cyclopentyl}-4-methanesulfonyl-benzamide hydrochloride] gave a melting point of 125.3 to 131.9 °C.
Work on `COc1cc(NC(=O)N[C@@H]2CN(C(N)=O)C[C@H]2N2CCC(Cc3ccc(Cl)cc3)CC2)cc(OC)c1OC` (racemic) (as salt: hydrochloride) yielded a melting point of 158 to 162 °C.
In the case of `COc1cc(NC(=O)N[C@@H]2C[C@H](O)C[C@H]2N2CCC(Cc3ccc(Cl)cc3)CC2)cc(OC)c1OC` (racemic) [Example 6, (±)-1-{(1R,2R,4S)-2-[4-(4-chlorobenzyl)piperidin-1-yl]-4-hydroxy-cyclopentyl}-3-(3,4,5-trimethoxyphenyl)urea], the melting point is reported as 98.7 to 102 °C.
In the case of `CS(=O)(=O)c1ccc(C(=O)N[C@@H]2CC[C@H]2N2CCC(Cc3ccc(Cl)cc3)CC2)cc1` (racemic) (as salt: hydrochloride), the melting point is reported as 173.2 to 184.1 °C.
Work on `COc1cc(NC(=O)N[C@@H]2CNC[C@H]2N2CCC(Cc3ccc(Cl)cc3)CC2)cc(OC)c1OC` (racemic) (as salt: hydrochloride) [Example 9, (±)-trans-1-{4-[4-(4-chlorobenzyl)piperidin-1-yl]-pyrrolidin-3-yl}-3-(3,4,5-trimethoxyphenyl)urea dihydrochloride] yielded a melting point of 157 to 170 °C.
`COc1cc(CC(=O)N[C@@H]2CCC[C@H]2N2CCC(Cc3ccc(Cl)cc3)CC2)cc(OC)c1OC` [Compound 7] showed an IC50 (CCR-3 receptor) of 1.48 µM.
In the case of `COc1cc(NC(=O)N[C@@H]2CN(S(C)(=O)=O)C[C@H]2N2CCC(Cc3ccc(Cl)cc3)CC2)cc(OC)c1OC` (racemic) (as salt: hydrochloride), the melting point is reported as 148 to 158 °C.
`COc1cc(NC(=O)N[C@@H]2CN(S(=O)(=O)N(C)C)C[C@H]2N2CCC(Cc3ccc(Cl)cc3)CC2)cc(OC)c1OC` (racemic) (as salt: hydrochloride) showed a melting point of 141 to 143 °C.
In the case of `CS(=O)(=O)c1cccc(NC(=O)N[C@@H]2CCCC[C@H]2N2CCC(Cc3ccc(Cl)cc3)CC2)c1` (racemic) (as salt: hydrochloride), the melting point is reported as 150.2 to 151.6 °C.
Compound `COc1cc(NC(=O)N[C@@H]2CCC[C@@H]2N2CCC(Cc3ccc(Cl)cc3)CC2)cc(OC)c1OC` (racemic) (as salt: hydrochloride) has a melting point of 117.5 to 122.5 °C.
For `O=[N+]([O-])c1ccccc1S(=O)(=O)N[C@@H]1CCC[C@H]1N1CCC(Cc2ccc(Cl)cc2)CC1` [Compound 8], the IC50 (CCR-3 receptor) was 6.09 µM.
In the case of `O=C(N[C@@H]1CCC[C@H]1N1CCC(Cc2ccc(Cl)cc2)CC1)OCc1ccc([N+](=O)[O-])cc1` [Compound 9], the IC50 (CCR-3 receptor) is reported as 5.12 µM.
`COc1cc(NC(=O)N[C@@H]2CCCC[C@@H]2N2CCC(Cc3ccc(Cl)cc3)CC2)cc(OC)c1OC` (racemic) (as salt: hydrochloride) showed a melting point of 120.1 to 137.3 °C.
For `COc1ccc(NC(=S)N[C@@H]2CCC[C@H]2N2CCC(Cc3ccc(Cl)cc3)CC2)cc1` [Compound 10], the IC50 (CCR-3 receptor) was 0.512 µM.
In the case of `O=C(Nc1cccc(Cl)c1Cl)N[C@@H]1CCC[C@H]1N1CCC(Cc2ccc(Cl)cc2)CC1` [Compound 3], the IC50 (CCR-3 receptor) is reported as 1.14 µM.
`COC[C@@H]1C[C@@H](N2CCC(Cc3ccc(Cl)cc3)CC2)[C@H](NC(=O)Nc2cc(OC)c(OC)c(OC)c2)C1` (racemic) (as salt: hydrochloride) showed a melting point of 109 to 112 °C.
Compound `COc1cc(NC(=O)N[C@@H]2CCCC[C@H]2N2CCC(Cc3ccc(Cl)cc3)CC2)cc(OC)c1OC` (racemic) [Example 1, (±)-trans-1-{2-[4-(4-chlorobenzyl)piperidin-1-yl]-cyclohexyl}-3-(3,4,5-trimethoxyphenyl)urea] has a melting point of 196.9 to 200 °C.
`O=C(Nc1ccc2ccccc2n1)N[C@@H]1CCC[C@H]1N1CCC(Cc2ccc(Cl)cc2)CC1` (racemic) [Compound 1, (±)-trans-1-{2-[4-(4-chlorobenzyl)piperidin-1-yl]cyclopentyl}-3-quinolin-2-yl-urea] showed an IC50 (CCR-3 receptor) of 0.557 µM.
In the case of `COc1cc(NC(=O)N[C@@H]2CN(C(=O)N(C)C)C[C@H]2N2CCC(Cc3ccc(Cl)cc3)CC2)cc(OC)c1OC` (racemic) (as salt: hydrochloride), the melting point is reported as 142 to 144.5 °C.
Work on `O=C(N[C@@H]1CCC[C@H]1N1CCC(Cc2ccc(Cl)cc2)CC1)c1cc2cc(Cl)ccc2[nH]1` [Compound 5] yielded an IC50 (CCR-3 receptor) of 2.69 µM.
For `COc1cc(NC(=O)N[C@@H]2CCC[C@H]2N2CCC(Cc3ccc(Cl)cc3)CC2)cc(OC)c1OC` (racemic) (as salt: hydrochloride), the melting point was 136.1 to 138 °C.
`COc1cc(NC(=O)N[C@@H]2CCC[C@H]2N2CCC(Cc3ccc(Cl)cc3)CC2)cc2ccccc12` (racemic) [Example 22, (±)-trans-1-{2-[4-(4-chlorobenzyl)piperidin-1-yl]-cyclopentyl}-3-(4-methoxy-naphthalen-2-yl)urea] showed a melting point of 175 to 190 °C.
Compound `COc1cc(NC(=O)N[C@@H]2COC[C@H]2N2CCC(Cc3ccc(Cl)cc3)CC2)cc(OC)c1OC` (racemic) (as salt: hydrochloride) has a melting point of 229.2 to 230.9 °C.
With `CS(=O)(=O)c1ccc(C(=O)N[C@@H]2CCCC[C@@H]2N2CCC(Cc3ccc(Cl)cc3)CC2)cc1` (racemic) (as salt: hydrochloride) [Example 14, (±)-cis-N-{2-[4-(4-chlorobenzyl)piperidin-1-yl]-cyclohexyl}-4-methanesulfonyl-benzamide hydrochloride] the melting point was 123.7 to 149.4 °C.
`COc1cc(NC(=O)N[C@@H]2CN(C(C)=O)C[C@H]2N2CCC(Cc3ccc(Cl)cc3)CC2)cc(OC)c1OC` (racemic) (as salt: hydrochloride) showed a melting point of 155 to 161 °C.
Work on `COc1cc(CCNC(=O)N[C@@H]2CCC[C@H]2N2CCC(Cc3ccc(Cl)cc3)CC2)cc(OC)c1OC` (racemic) (as salt: hydrochloride) yielded a melting point of 90.3 to 95 °C.
`O=C(NCCc1cccs1)N[C@@H]1CCC[C@H]1N1CCC(Cc2ccc(Cl)cc2)CC1` [Compound 4] showed an IC50 (CCR-3 receptor) of 0.864 µM.
Work on `CC(=O)c1cccc(C(=O)N[C@@H]2CCC[C@H]2N2CCC(Cc3ccc(Cl)cc3)CC2)c1` [Compound 6] yielded an IC50 (CCR-3 receptor) of 1.86 µM.
Work on `COc1cc(NC(=O)N[C@@H]2C[C@H](O)C[C@H]2N2CCC(Cc3ccc(Cl)cc3)CC2)cc(OC)c1OC` (racemic) (as salt: hydrochloride) yielded a melting point of 137 to 143 °C.
For `COc1cc(NC(=O)N[C@@H]2C[C@H](CO)C[C@H]2N2CCC(Cc3ccc(Cl)cc3)CC2)cc(OC)c1OC` (racemic) (as salt: hydrochloride), the melting point was 138 to 143 °C.
In the case of `CC(=O)Nc1cccc(NC(=O)N[C@@H]2CCC[C@H]2N2CCC(Cc3ccc(Cl)cc3)CC2)c1` [Compound 2], the IC50 (CCR-3 receptor) is reported as 0.0185 µM.
For `COc1cc(NC(=O)N[C@@H]2CN(CCS(C)(=O)=O)C[C@H]2N2CCC(Cc3ccc(Cl)cc3)CC2)cc(OC)c1OC` (racemic) (as salt: hydrochloride), the melting point was 210.2 to 211.8 °C.
Compound `COc1cc(NC(=O)N[C@@H]2CN(S(N)(=O)=O)C[C@H]2N2CCC(Cc3ccc(Cl)cc3)CC2)cc(OC)c1OC` (racemic) (as salt: hydrochloride) has a melting point of 155.7 to 160 °C.
`COc1cc(NC(=O)N[C@@H]2CC[C@H]2N2CCC(Cc3ccc(Cl)cc3)CC2)cc(OC)c1OC` (racemic) (as salt: hydrochloride) showed a melting point of 127.4 to 128.2 °C.
Compound `COc1cc(NC(=O)N[C@@H]2CC[C@@H]2N2CCC(Cc3ccc(Cl)cc3)CC2)cc(OC)c1OC` (racemic) (as salt: hydrochloride) has a melting point of 123.7 to 127.9 °C.
